“And” between values parts separate entries of the source, which are not always exact repeats. Equal values may be shown once. Inconclusive results and toxic doses are left out. How the source made its calls: active means survival T/C of 150% or more; inactive means T/C below 125% in these data.
Test system: CD2F1 mice, L1210 leukemia ip, survival T/C
Test: NCI In Vivo Anticancer Drug Screen. Data for tumor model L1210 Leukemia (intraperitoneal) in CD2F1 (CDF1) mice
Conditions: higher = longer survival
Description: The antitumor activity of compounds was measured in mice bearing transplantable tumors. Survival or tumor size were measured and the results are expressed as the measurement made in the treated group (T) divided by the measurement made in the vehicle treated control group (C). The tumor model used in this assay is L1210 Leukemia (intraperitoneal) in CD2F1 (CDF1) mice

[1] = endpoint: mean survival time, dose: 100.0 mg/kg/injection, schedule: Q01DX009 (ip), vehicle: saline with Tween-80
[2] = endpoint: mean survival time, dose: 200.0 mg/kg/injection, schedule: Q01DX009 (ip), vehicle: saline with Tween-80
[3] = endpoint: mean survival time, dose: 100.0 mg/kg/injection, schedule: Q04DX002 (ip), vehicle: saline with Tween-80
[4] = endpoint: mean survival time, dose: 200.0 mg/kg/injection, schedule: Q04DX002 (ip), vehicle: saline with Tween-80
[5] = endpoint: mean survival time, dose: 400.0 mg/kg/injection, schedule: Q04DX002 (ip), vehicle: saline with Tween-80
[6] = endpoint: mean survival time, dose: 400.0 mg/kg/injection, schedule: Q01DX009 (ip), vehicle: saline with Tween-80
[7] = endpoint: mean survival time, dose: 75.0 mg/kg/injection, schedule: Q01DX001 (ip), vehicle: saline
[8] = endpoint: mean survival time, dose: 150.0 mg/kg/injection, schedule: Q01DX001 (ip), vehicle: saline
[9] = endpoint: mean survival time, dose: 100.0 mg/kg/injection, schedule: Q04DX003 (ip), vehicle: saline with Tween-80
[10] = endpoint: mean survival time, dose: 200.0 mg/kg/injection, schedule: Q04DX003 (ip), vehicle: saline with Tween-80
[11] = endpoint: mean survival time, dose: 400.0 mg/kg/injection, schedule: Q04DX003 (ip), vehicle: saline with Tween-80
[12] = endpoint: mean survival time, dose: 100.0 mg/kg/injection, schedule: Q01DX009 (ip), vehicle: Klucel (hydroxypropylcellulose) (HPC)
[13] = endpoint: mean survival time, dose: 200.0 mg/kg/injection, schedule: Q01DX009 (ip), vehicle: Klucel (hydroxypropylcellulose) (HPC)

Measured: T/C

CC(N)(CCC(=O)O)C(=O)O (stereo not given)
inactive: [1] 96 % of control | [2] 101 % of control

O=[N+]([O-])c1ccccc1NCCO
inactive: endpoint: mean survival time, dose: 100.0 mg/kg/injection, schedule: Q01DX001 (ip), vehicle: saline with Tween-80 101 % of control | endpoint: mean survival time, dose: 200.0 mg/kg/injection, schedule: Q01DX001 (ip), vehicle: saline with Tween-80 98 % of control | endpoint: mean survival time, dose: 400.0 mg/kg/injection, schedule: Q01DX001 (ip), vehicle: saline with Tween-80 102 % of control

O=C(NCC1CCCCO1)Nc1ccc(Cl)cc1 (stereo not given)
inactive: [3] 110 % of control | [4] 102 % of control | [5] 94 % of control

O=C(CC1CCCCC1)N/N=C/c1cccc([N+](=O)[O-])c1
inactive: [1] 90 % of control | [2] 93 % of control | [6] 90 % of control

CC(C)CC(C)NCCO (stereo not given)
inactive: [7] 98 % of control | [8] 100 % of control

c1ccc(-c2nc3ccc4ccccc4c3nc2-c2ccccc2)cc1
inactive: [1] 94 % of control | [9] 98 % of control | [2] 96 % of control | [10] 92 % of control | [6] 96 % of control | [11] 92 % of control

CN(C)N=Nc1ccccc1C(=O)NCC(F)(F)F
inactive: endpoint: mean survival time, dose: 18.75 mg/kg/injection, schedule: Q01DX009 (ip), vehicle: Klucel (hydroxypropylcellulose) (HPC) 96 % of control and 106 % of control | endpoint: mean survival time, dose: 37.5 mg/kg/injection, schedule: Q01DX009 (ip), vehicle: Klucel (hydroxypropylcellulose) (HPC) 93 % of control and 106 % of control | endpoint: mean survival time, dose: 75.0 mg/kg/injection, schedule: Q01DX009 (ip), vehicle: Klucel (hydroxypropylcellulose) (HPC) 96 % of control and 100 % of control | endpoint: mean survival time, dose: 150.0 mg/kg/injection, schedule: Q01DX009 (ip), vehicle: Klucel (hydroxypropylcellulose) (HPC) 100 % of control and 102 % of control | endpoint: mean survival time, dose: 300.0 mg/kg/injection, schedule: Q01DX009 (ip), vehicle: Klucel (hydroxypropylcellulose) (HPC) 100 % of control and 103 % of control

NCC1C2CCC(C2)C1CCCNCCCC1C2CCC(C2)C1CN (stereo not given)
inactive: endpoint: mean survival time, dose: 6.25 mg/kg/injection, schedule: Q04DX002 (ip), vehicle: saline with Tween-80 98 % of control | endpoint: mean survival time, dose: 12.5 mg/kg/injection, schedule: Q04DX002 (ip), vehicle: saline with Tween-80 107 % of control | endpoint: mean survival time, dose: 25.0 mg/kg/injection, schedule: Q04DX002 (ip), vehicle: saline with Tween-80 114 % of control

Cc1ccc2cc3c(ccc4ccccc43)c3c2c1CC3
inactive: endpoint: mean survival time, dose: 50.0 mg/kg/injection, schedule: Q01DX009 (ip), vehicle: saline with Tween-80 93 % of control | [1] 110 % of control | [2] 97 % of control | [6] 100 % of control

CC1(C)N=C(N)N=C(N)N1c1cccc(/C=C(\C#N)c2ccccc2)c1
inactive: endpoint: mean survival time, dose: 100.0 mg/kg/injection, schedule: Q04DX002 (ip), vehicle: Klucel (hydroxypropylcellulose) (HPC) 98 % of control | endpoint: mean survival time, dose: 200.0 mg/kg/injection, schedule: Q04DX002 (ip), vehicle: Klucel (hydroxypropylcellulose) (HPC) 95 % of control

CCOC(=O)C1C(=O)CC(c2ccccc2)C(C#N)(c2ccccc2)C1(O)c1ccccc1 (stereo not given)
inactive: [3] 90 % of control | [4] 90 % of control | [5] 90 % of control

CC(C)NCC(O)c1ccc(O)c(O)c1.[Pt].c1ccc([PH+](c2ccccc2)c2ccccc2)cc1.c1ccc([PH+](c2ccccc2)c2ccccc2)cc1
inactive: endpoint: median survival time, dose: 10.0 mg/kg/injection, schedule: Q04DX003 (ip), vehicle: saline with Tween-80 108 % of control | endpoint: median survival time, dose: 20.0 mg/kg/injection, schedule: Q04DX003 (ip), vehicle: saline with Tween-80 105 % of control | endpoint: median survival time, dose: 40.0 mg/kg/injection, schedule: Q04DX003 (ip), vehicle: saline with Tween-80 105 % of control | endpoint: median survival time, dose: 50.0 mg/kg/injection, schedule: Q04DX003 (ip), vehicle: saline with Tween-80 101 % of control | endpoint: median survival time, dose: 80.0 mg/kg/injection, schedule: Q04DX003 (ip), vehicle: saline with Tween-80 102 % of control | endpoint: median survival time, dose: 100.0 mg/kg/injection, schedule: Q04DX003 (ip), vehicle: saline with Tween-80 98 % of control

CCCCCCCCCCCCCCn1cnc2ncnc(Cl)c21
inactive: endpoint: mean survival time, dose: 6.25 mg/kg/injection, schedule: Q01DX005 (ip), vehicle: distilled water + Tween-80 100 % of control | endpoint: mean survival time, dose: 12.5 mg/kg/injection, schedule: Q01DX005 (ip), vehicle: distilled water + Tween-80 100 % of control | endpoint: mean survival time, dose: 25.0 mg/kg/injection, schedule: Q01DX005 (ip), vehicle: distilled water + Tween-80 93 % of control | endpoint: mean survival time, dose: 50.0 mg/kg/injection, schedule: Q01DX005 (ip), vehicle: distilled water + Tween-80 90 % of control | endpoint: mean survival time, dose: 100.0 mg/kg/injection, schedule: Q01DX005 (ip), vehicle: distilled water + Tween-80 91 % of control

CCOC(=O)CCCN(C)C(C)(C)C#N
inactive: [1] 103 % of control | [6] 108 % of control

CCNC1=CC(=O)CC(C)(C)C1
inactive: [7] 106 % of control | [8] 101 % of control | endpoint: mean survival time, dose: 300.0 mg/kg/injection, schedule: Q01DX001 (ip), vehicle: saline 109 % of control

O=C(O)C(F)(F)F
inactive: [1] 100 % of control | endpoint: mean survival time, dose: 100.0 mg/kg/injection, schedule: Q04DX003 (ip), vehicle: saline 102 % of control | [2] 103 % of control | endpoint: mean survival time, dose: 200.0 mg/kg/injection, schedule: Q04DX003 (ip), vehicle: saline 96 % of control | [6] 100 % of control | endpoint: mean survival time, dose: 400.0 mg/kg/injection, schedule: Q04DX003 (ip), vehicle: saline 102 % of control

O=C(O)c1cc(Br)c(Br)s1
inactive: [9] 94 % of control | [10] 94 % of control

O=C(COc1ccc(Cl)cc1Cl)Nc1cccc(Cl)c1
inactive: [3] 101 % of control | [4] 101 % of control | [5] 93 % of control

O=C(CC(=O)c1cccc([N+](=O)[O-])c1)Nc1cccc([N+](=O)[O-])c1
inactive: [12] 92 % of control | endpoint: mean survival time, dose: 100.0 mg/kg/injection, schedule: Q04DX003 (ip), vehicle: Klucel (hydroxypropylcellulose) (HPC) 90 % of control | [13] 92 % of control | endpoint: mean survival time, dose: 200.0 mg/kg/injection, schedule: Q04DX003 (ip), vehicle: Klucel (hydroxypropylcellulose) (HPC) 96 % of control | endpoint: mean survival time, dose: 400.0 mg/kg/injection, schedule: Q01DX009 (ip), vehicle: Klucel (hydroxypropylcellulose) (HPC) 94 % of control | endpoint: mean survival time, dose: 400.0 mg/kg/injection, schedule: Q04DX003 (ip), vehicle: Klucel (hydroxypropylcellulose) (HPC) 96 % of control

Cc1ccc([N+](=O)[O-])cc1NC(=O)N1CCC(C)CC1
inactive: endpoint: mean survival time, dose: 50.0 mg/kg/injection, schedule: Q01DX009 (ip), vehicle: Klucel (hydroxypropylcellulose) (HPC) 98 % of control | [12] 96 % of control | [13] 101 % of control

COc1ccc(-c2cc(C(=O)O)c3ccc(C)cc3n2)cc1
inactive: [9] 102 % of control | [10] 101 % of control | [11] 101 % of control

O=c1[nH]cnc2n[nH]nc12
inactive: endpoint: mean survival time, dose: 12.5 mg/kg/injection, schedule: Q01DX009 (ip), vehicle: Klucel (hydroxypropylcellulose) (HPC) 116 % of control | endpoint: mean survival time, dose: 25.0 mg/kg/injection, schedule: Q01DX009 (ip), vehicle: Klucel (hydroxypropylcellulose) (HPC) 119 % of control | endpoint: mean survival time, dose: 75.0 mg/kg/injection, schedule: Q01DX001 (ip), vehicle: other 103 % of control | endpoint: mean survival time, dose: 150.0 mg/kg/injection, schedule: Q01DX001 (ip), vehicle: other 108 % of control | endpoint: mean survival time, dose: 300.0 mg/kg/injection, schedule: Q01DX001 (ip), vehicle: other 108 % of control
